# In publication PMC12226733, “Evolution of iGluR ligand specificity, polyamine regulation, and ion selectivity inferred from a placozoan epsilon receptor” (Communications Biology, 2025):
# “And” between values parts separate entries of the source, which are not always exact repeats. Equal entries are not always repeated. “Also recorded” adds a separate entry of the source. Where two headings read alike, the source gives them in different places.
# Tests used:
# [1] = target: T. adhaerens GluE1αA receptor (wildtype) (Trichoplax adhaerens, UniProt B3SAW0); assay: whole-cell patch clamp, agonist-evoked currents in CHO-K1 cells; format: cell-based; conditions: for normalized peak inward current, Avg / normalized peak inward current, single recording: wild type; for sensitivity to agonist: 1 mM
# [2] = system: GluE1αA m2 variant (S653G, I655T); format: cell-based, Trichoplax adhaerens; conditions: for normalized peak inward current, Avg / normalized peak inward current, single recording / normalized current (dose response), Avg / normalized current (dose response), single recording: m2
# Source text: (§1) As noted, a model has been put forward that defines iGluR ligand specificity based on a set of key amino acids in the LBD of iGluRs[11]. […] To the best of our knowledge, whether these few positions are indeed solely responsible for ligand specificity, and moreover, can be altered to switch specificity for natural ligands, has not been experimentally tested. […] We also created a triple mutant, with an additional phenylalanine to tyrosine mutation at position 732 (F732Y; m3 variant), to make the T. adhaerens epsilon receptor resemble GluN2A and GluA2 receptors from human, reasoning that this mutation might enhance glutamate sensitivity. We also generated a single F732Y mutant (m1 variant), to assess the contribution of this amino acid to ligand specificity in isolation.
# (§2) The cDNA of the T. adhaerens GluE1αA receptor was cloned into the mammalian expression vector pIRES2-EGFP, using a 5’ nested primer that inserted a mammalian consensus Kozak sequence of […] (Supplementary Table 5). Several mutants/variants of this receptor where also prepared via site directed mutagenesis using standard procedures and primers listed in Supplementary Table 5. For electrophysiological comparisons, we commissioned GenScript (USA) to synthesize the cDNA of the human GluA2 […] receptor (NCBI accession number NP_001077088.2), which was cloned into the pIRES2-EGFP vector with a Kozak sequence flanking the start codon and restriction enzymes SalI and BamHI at the 5’ and 3’ ends of the cDNA, respectively. Receptor cDNAs in the various pIRES2 constructs were transfected into Chinese Hamster Ovary-K1 (CHO-K1; Sigma) cells cultured in Dulbecco’s Modified Eagle Medium Nutrient Mixture F-12 (DMEM/F12) supplemented with 10% Fetal Bovine Serum (FBS) and 1% penicillin-streptomycin at 37°C. Transfections were done with 2 μg of plasmid vector using the transfecting reagent PolyJet^TM (SignaGen Laboratories, USA) according to the manufacturer’s instructions and plated onto glass coverslips in 35 mm dishes the next day. Transfected cells were incubated at 28°C for 2 to 4 days, then coverslips were transferred to a new 60 mm dish with 5 mL of external recording solution. […] Agonists and pharmacological compounds used in this study were dissolved in corresponding external solutions. […] Patch pipettes were pulled using a P-1000 micropipette puller (Sutter, USA), from thick-walled borosilicate tubing (1.5 and 0.86 outer and inner diameter, respectively), to a resistance of between 1 and 6 megaohms.
# [3] = system: GluE1αA m3 variant (S653G, I655T, F732Y); format: cell-based, Trichoplax adhaerens; conditions: for normalized peak inward current, Avg / normalized peak inward current, single recording / normalized current (dose response), Avg / normalized current (dose response), single recording: m3
# Source text: as §1, §2
# [4] = system: GluE1αA m1 variant (F732Y); format: cell-based, Trichoplax adhaerens; conditions: m1; ligand 10 mM; normalized to glycine
# Source text: as §1, §2
# [5] = ligand tested on its own at 10 mM
# [6] = tested as a single mix each at 3 mM
# [7] = ligand 10 mM, normalized to glycine
# [8] = ligand 10 mM, normalized to glutamate
# Chain of T. adhaerens GluE1αA receptor (wildtype) (B3SAW0 entry or part of it): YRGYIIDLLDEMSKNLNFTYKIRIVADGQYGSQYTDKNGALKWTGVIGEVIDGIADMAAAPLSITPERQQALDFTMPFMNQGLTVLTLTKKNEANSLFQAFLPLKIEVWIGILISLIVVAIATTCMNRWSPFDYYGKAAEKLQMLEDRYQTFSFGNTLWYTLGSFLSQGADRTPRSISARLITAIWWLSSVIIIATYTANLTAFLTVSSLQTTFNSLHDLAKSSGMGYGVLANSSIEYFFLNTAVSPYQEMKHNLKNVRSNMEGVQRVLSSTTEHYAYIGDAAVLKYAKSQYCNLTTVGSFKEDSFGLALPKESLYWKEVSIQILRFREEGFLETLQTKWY
smiles,measurement,setting,value
C[C@@H](O)[C@H](N)C(=O)O [threonine],activation of ligand-gated current,[1]; [5],no responses
CC[C@H](C)[C@H](N)C(=O)O [isoleucine],activation of ligand-gated current,[1]; [6],no responses
N[C@@H](Cn1oc(=O)[nH]c1=O)C(=O)O [quisqualate],"normalized peak inward current, Avg",[1]; agonist 1 mM,0.00248
same,sensitivity to agonist,[1]; wildtype,not sensitive
same,"normalized peak inward current, Avg",[2]; agonist 1 mM,0.00939
same,"normalized peak inward current, Avg",[3]; agonist 1 mM,0.01
N[C@@H](CCC(=O)O)C(=O)O [glutamate],activation of ligand-gated current,[1]; [5],no responses
same,"normalized peak inward current, Avg",[1]; agonist 1 mM,0.0035
same,"normalized peak inward current, Avg",[1]; [7],0.00871
same,"normalized peak inward current, Avg",[4],0.02
same,"normalized peak inward current, Avg",[2]; agonist 1 mM,0.76
same,"normalized peak inward current, single recording","[2]; agonist 1 mM, listed as Glu",0.74 and 0.64 and 0.71 and 0.87 and 0.80
same,"normalized current (dose response), Avg",[2]; glutamate 0.3 mM,0.0181
same,"normalized current (dose response), Avg",[2]; glutamate 1 mM,0.22
same,"normalized current (dose response), single recording",[2]; glutamate 1 mM,0.14 and 0.22 and 0.25 and 0.19 and 0.27
same,"normalized current (dose response), Avg",[2]; glutamate 3 mM,0.76
same,"normalized current (dose response), single recording",[2]; glutamate 3 mM,0.66 and 0.88 and 0.67 and 0.63 and 0.98 and 0.72
same,"normalized current (dose response), Avg",[2]; glutamate 10 mM,0.98
same,"normalized current (dose response), single recording",[2]; glutamate 10 mM,1.00 and 0.98 and 0.92
same,"normalized peak inward current, Avg",[2]; [8],1.00
same,"normalized peak inward current, single recording",[2]; [8],1.00
same,sensitivity to agonist,"[2]; m2 variant, 1 mM",robust responses
same,EC50,"[2]; m2 variant, dose response of normalized current",1810 ± 200 µM
same,"normalized peak inward current, Avg",[3]; agonist 1 mM,1.00
same,"normalized peak inward current, single recording","[3]; agonist 1 mM, listed as Glu",1.03 and 1.05 and 1.08 and 0.95 and 0.92 and 0.91
same,"normalized current (dose response), Avg",[3]; glutamate 0.1 mM,0.02
same,"normalized current (dose response), Avg",[3]; glutamate 0.3 mM,0.16
same,"normalized current (dose response), single recording",[3]; glutamate 0.3 mM,0.14 and 0.12 and 0.11 and 0.13 and 0.20 and 0.16 and 0.19
same,"normalized current (dose response), Avg",[3]; glutamate 1 mM,0.88
same,"normalized current (dose response), single recording",[3]; glutamate 1 mM,0.97 and 0.78 and 0.74 and 0.89 and 0.95 and 0.87 and 0.86 and 0.96
same,"normalized current (dose response), Avg",[3]; glutamate 3 mM,0.95
same,"normalized current (dose response), single recording",[3]; glutamate 3 mM,0.98 and 0.83 and 1.00 and 0.87
same,"normalized peak inward current, Avg",[3]; [8],1.00
same,"normalized peak inward current, single recording",[3]; [8],1.00
same,EC50,"[3]; m3 variant, dose response of normalized current",610 ± 60 µM
"Cc1onc(O)c1CC(N)C(=O)O (stereo not drawn) [AMPA, α-amino-3-hydroxy-5-methyl-4-isoxazolepropionic acid]","normalized peak inward current, Avg",[1]; agonist 1 mM,0.00463
same,sensitivity to agonist,[1]; wildtype,insensitivity; also recorded: not sensitive
same,"normalized peak inward current, Avg",[2]; agonist 1 mM,0.00676
same,"normalized peak inward current, Avg",[3]; agonist 1 mM,0.36
same,"normalized peak inward current, single recording",[3]; agonist 1 mM,0.33 and 0.26 and 0.30 and 0.41 and 0.44 and 0.43
same,sensitivity to agonist,"[3]; m3 variant, 1 mM",moderate responses; also recorded: sensitive
same,peak amplitude relative to current elicited by 1 mM glutamate,"[3]; m3 variant, 1 mM AMPA, slow desensitizing currents",roughly 36%
N[C@@H](CO)C(=O)O [L-serine],activation of ligand-gated current,[1]; [5],activated
same,"normalized peak inward current, Avg",[1]; [7],0.94
same,"normalized peak inward current, single recording",[1]; [7],1.00 and 0.98 and 0.94 and 0.78 and 0.93 and 0.97
same,"normalized current (dose response), Avg","[1]; wildtype, ligand 0.03 mM",0.017
same,"normalized current (dose response), Avg","[1]; wildtype, ligand 0.10 mM",0.35
same,"normalized current (dose response), Avg","[1]; wildtype, ligand 0.30 mM",0.95
same,"normalized current (dose response), single recording","[1]; wildtype, ligand 0.30 mM",1.00 and 0.97 and 0.95 and 0.77 and 0.99
same,"normalized current (dose response), Avg","[1]; wildtype, ligand 1.00 mM",1.00
same,"normalized current (dose response), single recording","[1]; wildtype, ligand 1.00 mM",0.99 and 1.00 and 0.98
same,"normalized current (dose response), Avg","[1]; wildtype, ligand […]",0.63
same,"normalized peak inward current, Avg",[4],1.05
same,"normalized peak inward current, single recording",[4],1.18 and 1.01 and 1.00 and 1.05
same,"normalized peak inward current, Avg",[2]; [8],0.20
same,"normalized peak inward current, single recording",[2]; [8],0.17 and 0.18 and 0.24 and 0.27
same,"normalized peak inward current, Avg",[3]; [8],0.07
CSCC[C@H](N)C(=O)O [methionine],activation of ligand-gated current,[1],no responses
CC(C)[C@H](N)C(=O)O [valine],activation of ligand-gated current,[1]; [5],weakly
same,"normalized peak inward current, Avg",[1]; [7],0.35
same,"normalized current (dose response), Avg","[1]; wildtype, ligand 0.30 mM",0.0282
same,"normalized current (dose response), Avg","[1]; wildtype, ligand 1.00 mM",0.32
same,"normalized current (dose response), Avg","[1]; wildtype, ligand 3.00 mM",0.83
same,"normalized current (dose response), single recording","[1]; wildtype, ligand 3.00 mM",0.85 and 0.78 and 0.82 and 0.89 and 0.92 and 0.71 and 0.81 and 0.88
same,"normalized current (dose response), Avg","[1]; wildtype, ligand 10.00 mM",1.00
same,"normalized current (dose response), single recording","[1]; wildtype, ligand 10.00 mM",1.00
same,"normalized current (dose response), Avg","[1]; wildtype, ligand […]",0.56
same,"normalized peak inward current, Avg",[4],0.0347
same,"normalized peak inward current, Avg",[2]; [8],0.00917
same,"normalized peak inward current, Avg",[3]; [8],0.0123
N[C@@H](Cc1ccccc1)C(=O)O [phenylalanine],activation of ligand-gated current,[1]; [6],no responses
"CN[C@H](CC(=O)O)C(=O)O [NMDA, N-methyl-D-aspartate]","normalized peak inward current, Avg",[1]; agonist 1 mM,0.00229
same,sensitivity to agonist,[1]; wildtype,insensitivity; also recorded: not sensitive
same,"normalized peak inward current, Avg",[2]; agonist 1 mM,0.0107
same,"normalized peak inward current, Avg",[3]; agonist 1 mM,0.00471
C=C(C)[C@H]1CN[C@H](C(=O)O)[C@H]1CC(=O)O [kainate],"normalized peak inward current, Avg",[1]; agonist 1 mM,0.00265
same,sensitivity to agonist,[1]; wildtype,insensitivity; also recorded: not sensitive
same,"normalized peak inward current, Avg",[2]; agonist 1 mM,0.00537
same,"normalized peak inward current, Avg",[3]; agonist 1 mM,0.00374
N=C(N)NCCC[C@H](N)C(=O)O [arginine],activation of ligand-gated current,[1]; [5],no responses
"C[C@H](N)C(=O)O [alanine, L-alanine]","normalized current (dose response), Avg",[1],0.80
same,"normalized current (dose response), single recording",[1],0.66 and 0.73 and 0.79 and 0.89 and 0.75 and 0.91 and 0.87 and 0.80
same,activation of ligand-gated current,[1]; [5],activated
same,"normalized peak inward current, Avg",[1]; [7],0.89
same,"normalized peak inward current, single recording",[1]; [7],0.85 and 0.96 and 0.83 and 1.00 and 0.82
same,"normalized current (dose response), Avg","[1]; wildtype, ligand 0.01 mM",0.0244
same,"normalized current (dose response), Avg","[1]; wildtype, ligand 0.03 mM",0.28
same,"normalized current (dose response), Avg","[1]; wildtype, ligand 0.30 mM",1.00
same,"normalized current (dose response), single recording","[1]; wildtype, ligand 0.30 mM",1.00
same,"normalized current (dose response), Avg","[1]; wildtype, ligand […]",0.60
same,"normalized peak inward current, Avg",[4],1.12
same,"normalized peak inward current, single recording",[4],1.10 and 1.06 and 1.08 and 1.13 and 1.23
same,"normalized peak inward current, Avg",[2]; [8],0.36
same,"normalized peak inward current, single recording",[2]; [8],0.33 and 0.37 and 0.40 and 0.41 and 0.31
same,"normalized peak inward current, Avg",[3]; [8],0.0342
C[N+](C)(C)CC(=O)O [betaine],activation of ligand-gated current,[1]; [5],no responses
CC(C)C[C@H](N)C(=O)O [leucine],activation of ligand-gated current,[1]; [6],no responses
NCCCC[C@H](N)C(=O)O [lysine],activation of ligand-gated current,[1]; [6],no responses
N[C@H](CO)C(=O)O [D-serine],activation of ligand-gated current,[1]; [5],activated
same,"normalized peak inward current, Avg",[1]; [7],0.95
same,"normalized peak inward current, single recording",[1]; [7],0.93 and 1.00 and 0.86 and 0.89
same,"normalized current (dose response), Avg","[1]; wildtype, ligand 0.03 mM",0.0178
same,"normalized current (dose response), Avg","[1]; wildtype, ligand 0.10 mM",0.20
same,"normalized current (dose response), Avg","[1]; wildtype, ligand 0.30 mM",0.78
same,"normalized current (dose response), single recording","[1]; wildtype, ligand 0.30 mM",0.63 and 0.81 and 0.90 and 0.84 and 0.69 and 0.70
same,"normalized current (dose response), Avg","[1]; wildtype, ligand 1.00 mM",0.97
same,"normalized current (dose response), single recording","[1]; wildtype, ligand 1.00 mM",1.00 and 0.99 and 0.87 and 0.90
same,EC50,"[1]; wildtype, monophasic dose-response fit of normalized whole-cell current",190 ± 40 µM
same,"normalized peak inward current, Avg",[4],0.76
same,"normalized peak inward current, single recording",[4],0.75 and 0.83 and 0.85 and 0.77 and 0.60
same,"normalized peak inward current, Avg",[2]; [8],0.06
same,"normalized peak inward current, single recording",[2]; [8],0.0548 and 0.0529 and 0.07 and 0.06 and 0.05
same,"normalized peak inward current, Avg",[3]; [8],0.19
N[C@@H](Cc1c[nH]cn1)C(=O)O [histidine],activation of ligand-gated current,[1]; [6],no responses
N[C@@H](CC(=O)O)C(=O)O [aspartate],activation of ligand-gated current,[1]; [5],no responses
